{"source": "patent US20210145768A1", "about": "“MODULATING IMMUNE RESPONSE VIA TARGETING OF OLFACTORY RECEPTOR ACTIVITY” (La Jolla Institute for Allergy and Immunology, priority 2018, published 2021)", "key": {"Olfr2 [1]": {"tested_on": "Olfr2", "experiment": "Olfr2 mRNA and protein expression in BMDMs (real time PCR, western blot, flow cytometry)", "assay_type": "cell-based, mouse", "conditions": "12 h", "method": "Olfr2 expression in BMDMs was investigated. Briefly, bone marrow cells from Apoe^−/− mice were stimulated with MCSF (20 ng/ml) for 7 d to generate BMDMs, which were left untreated or incubated with the Olfr2 agonist octanal (Oct, 10 μM), LPS, (500 ng/mL), or with both for 12 h.\n(§1) BMDMs and hMDMs were incubated in culture media for 12 h at 37° C. and 5% CO2 with Oct, (10 μM), LPS (500 ng/mL) alone or combined with Oct (LPS+Oct) and DMSO (0.1%) as a control and lysed with Qiazol (500 μL; Qiagen) Similarly, whole aortas incubated as previously described were transferred into Qiazol (500 μl; Qiagen) and digested with gentleMACS™ Dissociator (Miltenyi).\nBMDMs, hMDMs, mouse blood leukocytes and whole mount aortas were incubated in culture medium with Oct, (10 μM), LPS, (500 ng/mL) alone or combined (LPS+Oct) for 12h at 37° C. and 5% CO2. After the incubation aortas were cut into small pieces and digested for cell suspension as previously described^18. […]\nFor Olfr2 protein detection in BMDMs, cells were incubated in culture medium with Oct, (10 μM), LPS, (500 ng/mL) alone or combined (LPS+Oct) for 12h at 37° C. and 5% CO2. […] Total protein content was quantified using DC Protein Assay (Bio-Rad) and solubilized in a volume ratio of 1:1 with Laemmli Buffer (Bio-Rad). […]"}, "OR6A2": {"target": "T1, OR6A2 (Homo sapiens, UniProt O95222)", "T1 construct": "OR6A2 protein surface expression in hMDMs was confirmed by flow cytometry; endogenous in cells; host or cells: human monocyte-derived macrophages from healthy donors (rhM-CSF, 7 d)", "T1 sequence (O95222 1-327)": "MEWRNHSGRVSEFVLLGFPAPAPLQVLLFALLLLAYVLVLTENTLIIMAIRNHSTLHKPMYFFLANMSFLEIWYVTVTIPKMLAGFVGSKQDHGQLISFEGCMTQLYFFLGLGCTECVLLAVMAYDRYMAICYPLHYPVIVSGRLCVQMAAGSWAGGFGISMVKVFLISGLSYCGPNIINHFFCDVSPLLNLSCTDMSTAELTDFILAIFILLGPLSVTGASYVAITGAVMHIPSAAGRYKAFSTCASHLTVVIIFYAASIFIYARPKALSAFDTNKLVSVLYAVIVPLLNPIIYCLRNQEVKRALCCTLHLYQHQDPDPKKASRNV", "experiment": "Pro-inflammatory gene expression and cytokine secretion in hMDMs", "assay_type": "cell-based", "conditions": "12 h", "method": "Peripheral blood mononuclear cells (PBMCs) were isolated from EDTA-venous blood of informed healthy donors (25-50 years old) from La Jolla Institute for Immunology's in-house Normal Blood Donor Program (NBDP), using a Ficoll-Paque (GE Healthcare) standard separation protocol. Human monocytes were enriched from PBMCs by the EasySep™ Human Monocyte Isolation Kit (StemCell) according to the manufacturer's instructions. Enriched monocytes were incubated with culture medium supplemented with 50 ng/ml rhM-CSF at 37° C. and 5% CO2 for 7 days. Differentiated macrophages at day 7 were used for further studies.\nas §1\nTotal RNA was quantified using a nanodrop spectrophotometer (Peqlab) and 500 ng were reverse transcribed into cDNA using Omniscript reverse transcriptase (Qiagen). Real time PCR reactions were performed according to the RT^2 SYBR green gene expression assay protocol (Qiagen). RT2 SYBR Green qPCR master mix and premade RT^2 qPCR Primer Assays for mouse Olfr2, Rtp1, Rtp2, Ccl2, Ccl4, Tnf, Nos2 and Gapdh were used. […] The results were calculated applying the 2^−ΔΔCT method^32 using Gapdh/GAPDH as housekeeping gene.\nSupernatants of stimulated cells and aortic tissue were analyzed by BD CBA Flex Sets (BD Biosciences) for mouse TNFα, CCL2, CCL4, IL-1β, or human TNF, IL6, and IL-1β according to the manufacturer's protocol. Samples were analyzed with LSR-II (BD Biosciences). Data was acquired with FACSDiva software (BD Biosciences) and analyzed with FCAP array software 3.0 (BD Biosciences)."}, "Olfr2 [2]": {"target": "T2, Olfr2 (Mus musculus, UniProt Q9QWU6)", "T2 sequence (Q9QWU6 1-327)": "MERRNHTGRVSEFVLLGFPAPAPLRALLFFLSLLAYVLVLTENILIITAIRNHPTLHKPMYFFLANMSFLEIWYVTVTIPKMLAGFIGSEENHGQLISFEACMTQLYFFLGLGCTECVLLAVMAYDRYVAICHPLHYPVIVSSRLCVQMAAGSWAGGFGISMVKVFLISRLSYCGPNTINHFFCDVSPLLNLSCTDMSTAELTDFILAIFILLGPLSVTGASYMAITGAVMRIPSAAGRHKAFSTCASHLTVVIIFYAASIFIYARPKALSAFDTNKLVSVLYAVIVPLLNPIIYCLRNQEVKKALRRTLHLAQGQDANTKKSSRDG", "experiment": "Inflammatory gene expression (real time PCR) in explanted whole aortas treated with octanal, citral, LPS", "assay_type": "cell-based", "set-up": "Olfr2 expression was confirmed at the protein level on F4/80^+ vascular macrophages; from tissue; host or cells: explanted whole aortas, digested aortic cell suspensions (F4/80+ vascular macrophages) and blood monocytes of Apoe-/- C57BL/6J mice; living Apoe-/- mice for the in vivo study", "conditions": "dose response 3, 10, 30 μM octanal, 12 h"}}}
{"smiles": "CCCCCCCC=O", "note": "[octanal]", "values": [{"measurement": "Olfr2 mRNA and protein expression in BMDMs", "setting": "Olfr2 [1]; LPS + octanal combined", "value": "potentiated"}, {"measurement": "Olfr2 mRNA and protein expression in BMDMs", "setting": "Olfr2 [1]; octanal 10 μM", "value": "enhanced"}, {"measurement": "LPS-induced expression of TNF, IL6 and NOS2 in hMDMs", "setting": "OR6A2; LPS 500 ng/mL + octanal 10 μM", "value": "enhanced the LPS-induced expression"}, {"measurement": "secretion of inflammatory molecules (IL6, TNF) in hMDM supernatant", "setting": "OR6A2; LPS + octanal, cytokine bead array", "value": "enhanced"}, {"measurement": "mRNA expression of TNF, IL6 and NOS2 in hMDMs", "setting": "OR6A2; octanal 10 μM", "value": "induced mRNA expression"}, {"measurement": "octanal concentration at which enhancement of LPS-induced expression peaks", "setting": "Olfr2 [2]", "value": "3 to 10", "unit": "µM"}]}
